According to PMC8041370, “Limonoids from Guarea guidonia and Cedrela odorata: Heat Shock Protein 90 (Hsp90) Modulator Properties of Chisomicine D” (Journal of Natural Products, 2021):
Where two headings read alike, the source gives them in different places.

How the values were obtained:
U937 cells [1] = experiment: Apoptosis by annexin V-FITC/PI flow cytometry and caspase 3 Western blot; type: cell-based, human; details: U937, 20 μM
Method: (§1) U937 cells were preliminarily synchronized by serum starvation and then seeded in six-well plates at a cell density of 8 × 10^5 cell/well. After 24 h, they were incubated for 48 h in the presence of compound 1 at IC50 concentration (20 μm), with phenethyl isothiocyanate and DMSO as a positive and negative control, respectively. Apoptosis was evaluated by an annexin V–FITC/PI apoptosis detection kit (Dojindo EU GmbH, Munich, Germany), and the cell cycle was evaluated by propidium iodide (PI) staining of permeabilized cells, according to the available protocol, and flow cytometry (BD FACSCalibur flow cytometer, Becton Dickinson, San Jose, CA, USA). Data from 5000 events per sample were collected. The percentages of the elements in the hypodiploid region and in G1, S, and G2 phases of the cell cycle and apoptosis data were calculated using FlowJo (BD Biosciences). Experiments were performed in technical triplicates and repeated two times with similar results.
Whole cell lysates (U937) for immunoblot analysis were lysed with RIPA buffer (20 mM Tris-HCl pH 7.5, 150 mM NaCl, 1 mM EDTA, 1% NP-40, 1% sodium deoxycholate, 2.5 mM sodium pyrophosphate) supplemented with protease and phosphatase inhibitors. Protein concentration was determined by a Bradford solution for protein determination (Applichem) using BSA as a standard. […]

Hsp90α [2] = target: T1, Hsp90α (Homo sapiens, UniProt P07900); experiment: Hsp90 ATPase activity; type: biochemical; details: 10 or 20 μM; data not shown
Hsp90α [3] = target: T1, Hsp90α; experiment: Surface plasmon resonance binding to immobilized Hsp90α; design: purchased Stress-gen Bioreagents Corporation, Victoria, Canada SPP-776; details: SPR, 25 °C, mean ± standard deviation (n = 3)
Method: 1 and 4 μM), and, for each sample, a complete binding study was carried out in triplicate. The experiments were performed at 25 °C, using a flow rate of 50 μL/min, with 60 s monitoring of association and 300 s monitoring of dissociation. Changes in mass, due to the binding response, were recorded as resonance units (RU). To obtain the dissociation constant (KD), these responses were fit to a 1:1 Langmuir binding model by nonlinear regression, using the BiaEvaluation sofware program (GE Healthcare). Simple interactions were suitably fitted to a single-site bimolecular interaction model (A + B = AB), yielding a single KD.

[4] = system: Hsp90α client protein levels in U937 cells; experiment: Western blot of Hsp90α, Hsp70 and Hsp90 client protein levels; type: cell-based, human
Method: (§2) Whole cell lysates (U937) for immunoblot analysis were lysed with RIPA buffer (20 mM Tris-HCl pH 7.5, 150 mM NaCl, 1 mM EDTA, 1% NP-40, 1% sodium deoxycholate, 2.5 mM sodium pyrophosphate) supplemented with protease and phosphatase inhibitors. Protein concentration was determined by a Bradford solution for protein determination (Applichem) using BSA as a standard. Proteins were fractionated on SDS-PAGE, transferred into nitrocellulose membranes, and immunoblotted with the appropriate primary antibody. Signals were visualized with the appropriate horseradish peroxidase-conjugated secondary antibody and enhanced chemiluminescence (Amersham Biosciences-GE Healthcare, NY, USA). Densitometric analyses were carried out using the ImageJ software. Experiments were performed in duplicate.
Proteins extracted from U937 cells following a 24 h treatment with 20 μM solution of compound 1 and from untreated cells (control) were fractionated on SDS-PAGE. The bands corresponding to the intact and truncated forms of Hsp90 (apparent molecular weight 90 and 70 kDa, respectively) were excised and subjected to a classical in-gel tryptic digestion. The resulting peptide mixtures were analyzed in positive ion full scan and dependent scan MS mode on a Q-Exactive Orbitrap mass spectrometer coupled with a nanoUltimate UHPLC system (Thermo Fisher Scientific, Waltham, MA, USA). Peptide separation was performed on a capillary EASY-Spray PepMap column (0.075 mm × 50 mm, 2 μm, Thermo Fisher Scientific) using aqueous 0.1% formic acid (A) and CH3CN containing 0.1% formic acid (B) as mobile phases and a linear gradient from 3% to 40% of B in 45 min and a 300 nL/min flow rate. Mass spectra were acquired over an m/z range from 400 to 1300. Dependent scan data were preliminarily analyzed to confirm the presence of Hsp90 in the digested gel-bands. To this aim, MS and MS/MS data underwent Mascot software (v2.5, Matrix Science, Boston, MA, USA) analysis using the nonredundant data bank UniprotKB/Swiss-Prot (release 2020_03). Parameter sets were as follows: trypsin cleavage; carbamidomethylation of cysteine as a fixed modification and methionine oxidation as a variable modification; a maximum of two missed cleavages; false discovery rate (FDR), calculated by searching the decoy database, 0.05. The data analysis of protein was carried out using the gene ontology tool in the UniProt Knowledgebase (UniProtKB; http://www.uniprot.org). Based on the achieved results, full mass chromatograms were analyzed using Xcalibur software by generating extracted ion spectra specific for the Hsp90 tryptic peptides completely covering the protein amino acidic sequence.

[5] = system: U937 (human myeloid leukemia) cell line; experiment: MTT cell viability, U937; type: cell-based; details: U-937, 48 h
Method: (§3) HeLa (cervical carcinoma) and U937 (pro-monocytic, human myeloid leukemia) cell lines were purchased from the American Type Cell Culture (ATCC) (Rockville, MD, USA). HeLa cells were maintained in DMEM, and U937 were cultured in RPMI 1640, both supplemented with 10% FBS, 100 mg/L streptomycin, and penicillin 100 IU/mL at 37 °C in a humidified atmosphere of 5% CO2. To ensure logarithmic growth, cells were subcultured every 2 days. Stock solutions of compound in DMSO were stored in the dark at 4 °C. Appropriate dilutions were prepared in culture medium immediately prior to use. […] PBMCs were isolated from buffy coats of healthy donors (kindly provided by the Blood Center of the Hospital of Battipaglia, Italy) by using standard Ficoll-Hypaque gradients. PBMCs were incubated with DMSO or compound 1 at 30 μM for 48 h. […] The number of viable cells was quantified by the MTT [3-(4,5-dimethylthiazol-2-yl)-2,5-diphenyl tetrazolium bromide] assay. Absorption at 550 nm for each well was assessed using Multiskan GO (Thermo Scientific). Half-maximal inhibitory concentration (IC50) values were calculated using GraphPad Prism 8. Experiments were performed in technical triplicates and repeated two times with similar results.

[6] = system: HeLa (epithelial carcinoma) cells; experiment: MTT cell viability, HeLa; type: cell-based; details: Homo sapiens, 48 h
Method: as §3

[7] = system: PBMC (nontumor human peripheral blood mononuclear cell line); experiment: Cytotoxicity on PBMC; type: cell-based; details: 30 μM, 48 h
Method: HeLa (cervical carcinoma) and U937 (pro-monocytic, human myeloid leukemia) cell lines were purchased from the American Type Cell Culture (ATCC) (Rockville, MD, USA). HeLa cells were maintained in DMEM, and U937 were cultured in RPMI 1640, both supplemented with 10% FBS, 100 mg/L streptomycin, and penicillin 100 IU/mL at 37 °C in a humidified atmosphere of 5% CO2. To ensure logarithmic growth, cells were subcultured every 2 days. Stock solutions of compound in DMSO were stored in the dark at 4 °C. Appropriate dilutions were prepared in culture medium immediately prior to use. […] PBMCs were isolated from buffy coats of healthy donors (kindly provided by the Blood Center of the Hospital of Battipaglia, Italy) by using standard Ficoll-Hypaque gradients. PBMCs were incubated with DMSO or compound 1 at 30 μM for 48 h.

U937 cells [8] = experiment: Cell cycle by propidium iodide flow cytometry and p-CDC2/CDC2 Western blot; type: cell-based, human
Method: as §1, §2

[9] = U937, 20 μM, 48 h, PI staining, Figure 2B

SMILES: C/C=C(\C)C(=O)O[C@@H]1/C=C\[C@]2(O)C3=CC(=O)O[C@@H](c4ccoc4)[C@]3(C)CC[C@]2(O)[C@]2(C)C(=O)C[C@@]1(C)[C@@H]2CC(=O)OC (relative stereo) [Compound 1, 8-hydro-(8S*,9S*)-dihydroxy-14,15-en-chisomicine A]
- increase of late apoptosis compared to the negative control (U937 cells [1]; 48 h, annexin V/FITC): about 15%
- pro-caspase 3 cleavage (U937 cells [1]; Western blot): induced the cleavage of pro-caspase 3
- inhibition of Hsp90 ATPase activity (Hsp90α [2]): did not affect its enzymatic efficiency
- Kd (Hsp90α [3]): 18.2 ± 1.9 nM
- Hsp70 cellular levels ([4]; U937, 30 μM, 48 h): affected
- ERK concentration ([4]; U937, 10, 20 and 30 μM, 48 h): no significant variation
- Hsp90 amount ([4]; U937, 10, 20 and 30 μM, 48 h): down-regulated in a dose-dependent manner
- p-ERK2 level ([4]; U937, 10, 20 and 30 μM, 48 h): strong depletion
- Hsp90 cleavage ([4]; U937, 20 and 30 μM, 48 h): Hsp90 cleaved form, with an apparent molecular weight of 70 kDa, was observed
- level of both isoforms of JNK ([4]; U937, 48 h, regardless of phosphorylation): significantly reduced
- IC50 ([5]; read-out: IC50 growth inhibition U937): 20000 ± 3000 nM
- IC50 [6]: > 50000 nM
- cytotoxic activity on PBMC [7]: did not show any cytotoxic activity
- G1 phase (U937 cells [8]; [9]): 53,1
- G2 phase (U937 cells [8]; [9]): 16,7
- S phase (U937 cells [8]; [9]): 12,3
- effect on cell cycle (U937 cells [8]; U937, 48 h (1 at 20 μM)): G2 phase cell cycle arrest
- p-CDC2/CDC2 ratio (U937 cells [8]; U937, Western blot, 10 and 20 μM): increase

SMILES: C/C=C(\C)C(=O)O[C@@H]1/C=C\C2=C3CC(=O)O[C@@H](c4ccoc4)[C@]3(C)CC[C@]2(O)[C@]2(C)C(=O)C[C@@]1(C)[C@@H]2CC(=O)OC (relative stereo) [Compound 3, (9R*)-hydroxychisomicine A]
- KD (Hsp90α [3]): no binding

SMILES: C=C(C)C(=O)O[C@@H]1/C=C\[C@]2(O)C3=CC(=O)O[C@@H](c4ccoc4)[C@]3(C)CC[C@]2(O)[C@]2(C)C(=O)C[C@@]1(C)[C@@H]2CC(=O)OC [Compound 2, chisomicine E]
- KD (Hsp90α [3]): no binding

SMILES: COC(=O)C[C@H]1C(C)(C)[C@H](OC(=O)C(O)C(C)C)[C@@H]2C=C3C4CC(=O)O[C@@H](c5ccoc5)[C@]4(C)CC[C@@H]3[C@@]1(C)C2=O (stereo partly drawn) [Compound 4, 3-(2′-hydroxyisovaleroyl)khasenegasin I]
- KD (Hsp90α [3]): no binding

SMILES: CC(=O)O[C@H]1C[C@@]2(C)[C@H](C3=CC(=O)O[C@@H]3O)OC(=O)[C@H]3O[C@]32[C@@]2(C)[C@H]1[C@@]1(C)C=CC(=O)OC(C)(C)[C@@H]1C[C@H]2OC(C)=O [Compound 5, 7-deoxo-7α,11β-diacetoxykihadanin A]
- KD (Hsp90α [3]): no binding

SMILES: CC(=O)O[C@H]1C[C@@]2(C)[C@H](C3=CC(=O)O[C@@H]3O)OC(=O)[C@H]3O[C@]32[C@@]2(C)[C@H]1[C@@]1(C)[C@@H](OC(C)=O)CC(=O)OC(C)(C)[C@@H]1C[C@H]2OC(C)=O [Compound 6, 1,2-dihydro-7-deoxo-1α,7α,11β-triacetoxykihadanin A]
- KD (Hsp90α [3]): no binding

SMILES: CC(=O)O[C@H]1CC(=O)OC(C)(C)[C@@H]2C[C@@H](OC(C)=O)[C@@]3(C)C4=CC[C@@H](C(O)(CO)CCO)[C@]4(C)CC[C@@H]3[C@@]12C (stereo partly drawn) [Compound 7, cedrelosin F]
- KD (Hsp90α [3]): no binding

SMILES: CC(=O)O[C@H]1C[C@@]2(C)[C@H](c3ccoc3)OC(=O)[C@H]3O[C@]32[C@]2(C)[C@H](O)C[C@H]3C(C)(C)O[C@H]4CC(=O)OC[C@]43[C@@H]12 [Compound 8, 11β-acetoxylimonol]
- Kd (Hsp90α [3]): 24.8 ± 2.3 nM

SMILES: CC(=O)O[C@H]1C[C@@]2(C)[C@H](C3=C[C@@H](O)OC3=O)OC(=O)[C@H]3O[C@]32[C@@]2(C)[C@H]1[C@@]13COC(=O)C[C@@H]1OC(C)(C)[C@@H]3C[C@H]2OC(C)=O [Compound 9, 11β-acetoxycedrelosin B]
- KD (Hsp90α [3]): low affinity
- Kd (Hsp90α [3]): 183 ± 18.9 nM

SMILES: CC(=O)O[C@H]1C[C@@]2(C)[C@H](c3ccoc3)OC(=O)[C@H]3O[C@]32[C@@]2(C)[C@H]1[C@@]1(C)[C@@H](OC(C)=O)CC(=O)OC(C)(C)[C@@H]1C[C@H]2OC(C)=O [Compound 10, 7α,11β-diacetoxydihydronomilin]
- KD (Hsp90α [3]): no binding

SMILES: CC(=O)O[C@H]1C[C@@]2(C)[C@H](c3ccoc3)OC(=O)[C@H]3O[C@]32[C@@]2(C)[C@H]1[C@@]1(C)C=CC(=O)OC(C)(C)[C@@H]1C[C@H]2OC(C)=O [Compound 11, 11β-acetoxybacunyl acetate]
- Kd (Hsp90α [3]): 25.3 ± 1.8 nM

SMILES: COC(=O)C[C@H](OC(C)=O)[C@]1(C)[C@H]2[C@@H](OC(C)=O)C[C@@]3(C)[C@H](c4ccoc4)OC(=O)[C@H]4O[C@]43[C@]2(C)[C@H](OC(C)=O)C[C@H]1C(C)(C)O [Compound 12, odoralide]
- KD (Hsp90α [3]): no binding

SMILES: COC(=O)[C@@H](OC(C)=O)[C@H]1C(C)(C)[C@H](O)[C@@H]2CC3=C4CC(=O)O[C@@H](c5ccoc5)[C@]4(C)CC[C@@H]3[C@@]1(C)C2=O [Compound 13, 6-O-acetylswietenolide]
- Kd (Hsp90α [3]): 25.5 ± 3.4 nM

SMILES: COC(=O)C[C@H]1C(C)(C)[C@H](O)[C@@H]2CC3=C4CC(=O)O[C@@H](c5ccoc5)[C@]4(C)CC[C@@H]3[C@@]1(C)C2=O [Compound 14, proceranolide]
- KD (Hsp90α [3]): no binding

SMILES: C[C@@H]1C[C@H]2O[C@@H]2/C=C\C=C\C(=O)Cc2c(Cl)c(O)cc(O)c2C(=O)O1 [radicicol, reference compound]
- IC50 ([5]; positive control for HeLa and U937, cell line not specified, read-out: IC50 of positive control): 250 nM
